Measured values reported in a melting point compilation (Tetko et al.; mined from patent text by program, amines drawn as free bases though some values may be those of a salt).

Compound	melting point
O=C(OCc1ccccc1)c1cc2c3ccccc3n(Cc3ccccc3)c2cn1	169 to 170 °C
CCCCc1ccc(C(=O)NCc2cccc3c2C(=O)N(C2CCC(=O)NC2=O)C3=O)nc1 (centres undefined)	137 to 139 °C
COc1cc(C)nc(NC(=O)NS(=O)(=O)c2ccccc2OCCOS(C)(=O)=O)n1	176 to 179 °C
CN1CCN(c2cc(N)ccc2F)CC1	155 to 156 °C
COc1ccc(C2=NN(c3ccc4c(c3)COC4=O)C(=O)[C@H]3CC=CC[C@@H]23)cc1Cl (relative stereo)	212 to 213 °C
CC(=O)N(c1nc(N)no1)c1c(Cl)cccc1Cl	164 to 165 °C
CCCCCCCC(=O)OC(=C1C(=O)N(C(N)=O)c2cc(Cl)c(F)cc21)c1cccs1	149 to 150 °C
CCOC(=O)c1ccc2c(=O)n3cc(C(=O)O)ccc3nc2c1	275 to 324 °C
CNC(=S)N1CCSC1c1ccccc1OCCN1CCN(c2ccccc2)CC1 (single isomer, unassigned; (-))	144 to 146 °C
COC(=O)C(Oc1ccc(Cl)cc1)c1ccc(Oc2cccc(C(F)(F)F)c2)cc1 (centres undefined)	79 to 82 °C
C[C@@H]1O[C@](C#Cc2ccoc2)(C(F)(F)F)c2cc(Cl)ccc2NC1=O (relative stereo)	214 to 215 °C
c1ccc2cc(Cc3nc4cc(CCC5OCCO5)ccc4o3)ccc2c1	85 to 86 °C
CCCN(CCC)C(=O)c1cc(C)cc(C(=O)N[C@@H](Cc2cc(F)cc(F)c2)[C@@H](O)CCN)c1	61 to 72 °C
ClCc1ncn2c1CN=C(c1ccccc1Cl)c1cc(Cl)ccc1-2	165 °C
Cc1cncn1-c1cccc([N+](=O)[O-])c1	130 to 132 °C
CCOC(CN1C(=O)C2=C(c3cccs3)N(CC(OCC)OCC)C(=O)C2=C1c1cccs1)OCC	167 to 169 °C
CCCCCCCCSCC(=O)[C@H](Cc1ccccc1)NC(=O)[C@H](CC(C)C)NC(=O)OCc1ccccc1	69 °C
Cc1ccccc1COc1cccnc1NC(=N)Nc1ccc(Cl)cc1	158 to 159 °C
COc1ccc2c(c1)/C(=N\NC(N)=O)C(=O)N2CCN(C(C)C)C(C)C	157 to 159 °C
COc1ccc(Br)c(O)c1C(=O)O	143 to 144 °C
CCCCCCCCOc1ccc(-c2ncc(Br)cn2)cn1	99 to 101 °C
O=C1CCc2c(F)cc(F)cc2C1	46 °C
COc1cc2c(cc1OC)C1(C3OCCO3)CNCC2O1 (centres undefined)	107 to 109 °C
FC(Br)C=Cc1ncn(C(c2ccccc2)(c2ccccc2)c2ccccc2)n1 (centres undefined)	145 to 146 °C

Compound	melting point
Clc1nnc(Nc2cc(CN3CCCC3)cc(CN3CCCC3)c2)c2ccccc12	180 to 183 °C
O=[N+]([O-])c1ccc(-c2ncnn2-c2ccc(F)cc2)cc1	132 to 134 °C
CC(COS(C)(=O)=O)N1c2ccc(Cl)cc2Sc2ccc(C#N)cc21 (racemic)	132 °C
Cc1ncn(-c2ccc(C(=O)N3Cc4cccn4Cc4ccccc43)c(C(F)(F)F)c2)n1	148 to 150 °C
CC(C)(C)[Si](C)(C)Oc1ccc2[nH]nc(N3C(=O)c4ccccc4C3=O)c2c1	225 to 228 °C
CC1(C)OC(=O)C(Oc2ccc(Cl)cc2)=C1c1ccc(S(C)(=O)=O)cc1	113 to 114 °C
CCOC(=O)Cc1cn2cc(Br)nc(NC)c2n1	104 °C
CCN(C(=O)Nc1ccccc1CCc1cc(C(C)(C)C)c(O)c(C(C)(C)C)c1)C1CCN(Cc2ccccc2)CC1	149 to 151 °C
COC(=O)c1ccc(CN(O)Cc2ccc(C(=O)OC)cc2)cc1	129 to 131 °C
CC(C)(C)N(NC(=O)c1cccs1)C(=O)c1ccccc1	> 190 °C
COc1cc2c(cc1O)CCCC(C(=O)N1CCN(C(=O)c3cc(OC)c(OC)c(OC)c3)CC1)=C2	198 to 199 °C
COC(=O)Cc1cn(-c2ccccc2)nc1OCc1ccc(OCc2nc(-c3ccccc3)oc2C)nc1	96 to 97 °C
OCCc1ccc(OCc2coc(/C=C/c3ccccc3)n2)cc1	123 to 124 °C
CCC1OC1CC(=O)OC(C#N)c1ccc2ccccc2c1 (centres undefined)	60 to 61 °C
CC(c1oc2ccccc2c(=O)c1-c1cccc(F)c1)n1nc(-c2cccc(C(=O)N3CCOCC3)c2)c2c(N)ncnc21 (centres undefined)	104 to 106 °C
CCNC(=O)C1OC(n2cnc3c(NNC(=O)c4ccccc4)ncnc32)C2OC(C)(C)OC12 (centres undefined)	116 to 117 °C
COc1ccc2c(c1OC)CCC2C(=O)O (centres undefined)	128 to 130 °C
Nc1cc2nc(N)c(-c3ccccc3Cl)cc2cn1	175 °C
COC(=O)c1nn(Cc2ccccc2)c2ccccc12	72 to 73 °C
CN(C(=O)c1ccccc1-c1ccc(F)cc1)C1N(C)C(c2ccc(F)cc2)=NC1(C(F)(F)F)C(F)(F)F (centres undefined)	112 to 113 °C
COc1ccc(-c2ccc3ccccc3c2C(=O)N(C)C)cc1	194 to 195 °C
Cc1ncnn1-c1ccc(C#N)c(F)c1	89 to 90 °C
CCOC(=O)c1ccc(-c2ccc(-c3ccccc3)s2)s1	113 to 115 °C
CCOCCn1cc2c(C3C(=O)Nc4ccc(Cl)cc43)nc(Cl)nc2n1 (centres undefined)	> 300 °C

Compound	melting point
CCOC(=O)C(CO)NC(=O)C(CC(=O)O)NC(=O)CCNC(=O)c1ccc(C(=N)N)cc1 (centres undefined)	201 to 203 °C
COc1ccc(NC(=O)c2ccc(-c3ccc(-c4noc(C)n4)cc3C)cc2)cc1S(=O)CCN(C)C (centres undefined)	204 to 206 °C
COc1cc(OC)nc(Oc2cccc(F)c2)n1	45 °C
Cc1ccccc1NC(=NC#N)NC(NC(=O)Cc1ccc2c(c1)OCO2)C(C)(C)C (centres undefined)	152 to 153 °C
COc1c(-c2nnc(Cc3ccc(F)cc3)o2)n(C)c2ccccc2c1=O	156 to 157 °C
CC[C@@H]1CN(c2c(F)c(N)c3c(=O)c(C(=O)O)cn(C4CC4)c3c2F)C[C@H]1NC(=O)OC (relative stereo)	231 to 232 °C
COC(=O)C1C(c2ccccc2)OC(=O)N1C(c1ccccc1)c1ccccc1 (centres undefined)	99 to 102 °C
OCc1nn(-c2ccc(Cl)cc2)c2c1CCC2	149 to 150 °C
COc1ccc(Sc2cnc(N)s2)cc1	119 to 120 °C
CCCCN(CCCC)S(=O)(=O)c1cc(C(=O)O)ccc1Cl	93 to 96 °C
O=c1c2ccc(O)cc2oc2c1oc1ccccc12	> 300 °C
COc1cc2[nH]c(N3CCCN(C(=O)N4CCOCC4)CC3)nc(=O)c2c(C)c1OC	237 to 238 °C
CC(C)(C)c1cc(Oc2c(Cl)cc(C(F)(F)F)cc2Cl)n[nH]1	170 to 172 °C
CC1(C)CCC(C)(C)c2cc(C(C(N)=O)C(=O)OCc3ccccc3)ccc21 (centres undefined)	112 to 113 °C
CCc1cccc(NC(=N)Nc2cccc3ccccc23)c1	96 to 98 °C
O=C(Nc1ccccc1S(=O)(=O)c1ccccc1)N[C@@H](Cc1ccc(Nc2nccc3ccncc23)cc1)C(=O)O	184 °C
COC1CSC2=C(SC1)C(OC(=O)Oc1ccccc1)N(c1ccc(Cl)cn1)C2=O (centres undefined)	167 °C
O=C(NC1(C2CC2)CC1)c1c(NC(=O)c2cc(Cl)nn2-c2ncccc2Cl)c(Cl)cc2cn[nH]c12	173 to 175 °C
CC(C)(C)c1ccc(-c2nc(COCCc3cccc(NS(=O)(=O)C(F)(F)F)c3)cs2)cc1	110 to 112 °C
O=C(Nc1ccc2ccc(Cl)nc2n1)c1ccccc1	198 °C
CCOP(=O)(Cc1ccc(C(=O)N2CCc3ccccc32)cc1)OCC	93 to 94.5 °C
Cc1cccc(-c2n[nH]cc2-c2ccc(F)c(-c3ccc4c(c3)CCS4(=O)=O)c2)n1	107 to 109 °C
CCn1ccc2c(C)nc3c(Br)cnn3c21	113 to 114 °C
O=S(c1cc(Cl)c(-n2cccn2)c(Cl)c1)C(F)(F)F (centres undefined)	86 to 91 °C

Compound	melting point
COc1ccc2c(c1O)C13CCN(CC4CC4)C(C2)C1(Cc1ccccc1)CCC(=O)C3 (centres undefined)	122 to 124 °C
CCCCOc1cc(CCS(=O)(=O)NC(=O)OCc2ccccc2)n(Cc2ccc(Cl)cc2Cl)n1	92 to 95 °C
Cc1ccc(N)cc1Nc1ncc(-c2ccc(C#N)cc2)o1	144 °C
CC1Cc2cccc(-c3cccc4ccccc34)c2C1=O (centres undefined)	104 to 105 °C
COC(=O)[C@@H]1C[C@H](OS(C)(=O)=O)C(=O)[C@H]2[C@@]1(C)CC[C@H]1C(=O)O[C@H](c3ccoc3)C[C@]21C	147 to 150 °C
COc1ccc(C(C)(C)C)cc1S(=O)(=O)Cl	75 to 77 °C
CCCCCCCCCCCCCCc1cc(C(=O)O)c[nH]1	83 to 85 °C
Cc1cc2c(c3ccc(=O)[nH]c13)OC(CNC(=O)CN(C)C)C2 (centres undefined)	> 250 °C
Cn1cc(C2=C(c3cn(CCCOS(C)(=O)=O)c4ccccc34)C(=O)NC2=O)c2ccccc21	202 to 204 °C
CCCc1c(OCc2c(C)ccn3c(=O)c(CC(=O)O)cnc23)ccc(C(C)=O)c1O	191 to 193 °C
O=P(O)(O)C(NCCCCOc1ccccc1)P(=O)(O)O	206 to 208 °C
c1ccc2nc(CCN3CCc4[nH]c5ccccc5c4C3)ccc2c1	195 to 197 °C
O=C(Nc1ccc(Cl)cn1)c1cc(Cl)ccc1NCC1CCN(C2CCOCC2)CC1	192 to 194 °C
CCCn1c(COCC)nc2c(N)nc3cc(OC4CCNCC4)ccc3c21	202 to 204 °C
O=C(Nc1cc(C(F)(F)F)cc(C(F)(F)F)c1)C1C(=O)C2CCC(CC2)C1=O (centres undefined)	286 to 288 °C
COc1ccc(N(C(=O)c2ccc(OC)c(F)c2)c2ccc(F)cc2)cc1	54 to 56 °C
CCCOc1ccc2nc(NC(=O)OC)sc2c1	178 to 180 °C
CCC(C)(C)c1ccc(OCC(=O)Nc2cccc(C(=O)Nc3[nH]n(-c4c(Cl)cc(Cl)cc4Cl)c(=O)c3Br)c2)c(C(C)(C)CC)c1	139 to 141 °C
Cc1cc(-c2ccc(Cl)c(C)c2)nc(-c2cccc(-c3ccc(S(N)(=O)=O)s3)c2)n1	240 °C
CC(C)C(=O)N[C@@H](CSC(=O)C(C)C)C(=O)NCCSC(=O)C(C)C	94 to 96 °C
CN1CCN(c2ccc(S(=O)(=O)Oc3cc(Cl)c(Cl)cc3Cl)cc2)C1=O	181 to 183 °C
CCOC(=O)C(Cc1nc2ccccc2n1Cc1ccc([N+](=O)[O-])cc1)C(=O)OCC	135 °C
